Values of other authors as cited in patent US20040142353A1, “Compositions and methods for identifying plants having increased tolerance to imidazolinone herbicides” (priority 2002, published 2004).
Where two headings read alike, the source gives them in different places.

How the values were obtained:
[1] = tested on: B. napus mutants P1 and P2; conditions: B. napus (cv 'Topas') mutants P1 and P2
[2] = tested on: B. napus P1, P2, and P1×P2 hybrid; conditions: field trials

Row | Molecule | tolerance of mutant AHAS enzyme relative to wild type enzyme (AHAS enzyme; AHAS enzyme of homozygous P1 mutant vs wild type enzyme) | tolerance of mutant AHAS enzyme relative to wild type enzyme (AHAS enzyme; AHAS enzyme of homozygous P2 mutant vs wild type enzyme) | level of herbicide tolerated by mutant plants [1] | application rate withstood with no loss of yield [2]
1 | CCc1cnc(C2=NC(C)(C(C)C)C(=O)N2)c(C(=O)O)c1 (centres unmarked) [PURSUIT®, 2-[4,5-dihydro-4-methyl-4-(1-methylethyl)-5-oxo-1H-imidazol-2-yl]-5-ethyl-3-pyridinecarboxylic acid] | only slightly more tolerant | 500 times | approaching ten times the field-recommended rates | –
2 | methyl esters of 2-[4,5-dihydro-4-methyl-4-(1-methylethyl)-5-oxo-1H-imidazol-2-yl]-4-methylbenzoic acid and 2-[4,5-dihydro-4-methyl-4-(1-methylethyl)-5-oxo-1H-imidazol-2-yl]-5-methylbenzoic acid [ASSERT®] | – | – | approaching ten times the field-recommended rates | up to 800 g/ha
